Data published in ChEMBL document CHEMBL1148171, “Flavonoids from Koelreuteria henryi and other sources as protein-tyrosine kinase inhibitors” (J Nat Prod, 1993).
Converted amounts (≈) assume the structure as drawn.

assay: Inhibition of bovine thymus p56-LCK protein tyrosine kinase activity; design: species or system Bos taurus

Structure (SMILES) | IC50
O=c1c(O)c(-c2ccccc2O)oc2cc(O)cc(O)c12 [DATISCETIN] | 60 µg/mL (≈ 210 µM)
O=c1cc(-c2ccc(O)c(O)c2)oc2cc(O)cc(O)c12 [LUTEOLIN] | 4 µg/mL (≈ 14 µM)
O=c1c(O)c(-c2cc(O)c(O)c(O)c2)oc2cc(O)cc(O)c12 [MYRICETIN] | 10 µg/mL (≈ 31.4 µM)
O=c1c(O[C@H]2OC[C@@H](O)[C@@H](O)[C@@H]2O)c(-c2ccc(O)cc2)oc2cc(O)cc(O)c12 | 200 µg/mL (≈ 478 µM)
O=c1c(O)c(-c2ccc(O)cc2)oc2cc(O)cc(O)c12 [KAEMPFEROL] | 8 µg/mL (≈ 27.9 µM)
O=c1c(O)c(-c2ccc(O)cc2)oc2cc(O)ccc12 [RESOKAEMPFEROL] | 5 µg/mL (≈ 18.5 µM)
O=c1c(O)c(-c2ccc(O)c(O)c2)oc2cc(O)cc(O)c12 [QUERCETIN] | 8 µg/mL (≈ 26.5 µM)
O=c1c(O)c(-c2ccc(O)cc2O)oc2cc(O)cc(O)c12 [MORIN] | 50 µg/mL (≈ 165 µM)

More lines, now with the values ahead:

IC50 | Structure (SMILES)
10 µg/mL (≈ 37 µM) | Cc1cc(O)c2c(c1)C(=O)c1cc(O)cc(O)c1C2=O [EMODIN]
30 µg/mL (≈ 111 µM) | O=c1c(O)c(-c2ccccc2)oc2cc(O)cc(O)c12 [GALANGIN]
4 µg/mL (≈ 14.8 µM) | O=c1cc(-c2ccc(O)cc2)oc2cc(O)cc(O)c12 [APIGENIN]
30 µg/mL (≈ 99.9 µM) | COc1ccc(-c2oc3cc(O)cc(O)c3c(=O)c2O)cc1 [KAEMPFERIDE]
400 µg/mL (≈ 925 µM) | C[C@H]1O[C@H](Oc2c(-c3ccc(O)cc3)oc3cc(O)cc(O)c3c2=O)[C@@H](O)[C@@H](O)[C@@H]1O [KAEMPFEROL-3-O-RHAMNOSIDE]
